Measurements published in ChEMBL document CHEMBL1158655, “Plant anticancer agents. IX. Constituents of Hyptis tomentosa” (1979).
Converted amounts (≈) assume the structure as drawn.

These compounds were tested on KB (assay: Cytotoxicity against human KB cells). Conditions: read-out: ED50 (the source's name).
Assay type: functional
Work on `COc1ccc(-c2oc3c(OC)c(OC)c(OC)c(O)c3c(=O)c2OC)cc1` [5-HYDROXYAURANETIN] yielded an EC50 of 1.8 µg/mL (≈ 4.63 µM).
With `COc1ccc(-c2cc(=O)c3c(O)c(OC)c(OC)c(OC)c3o2)cc1` [GARDENIN B] the EC50 was 6 µg/mL (≈ 16.7 µM).
`COc1cc([C@@H]2c3cc4c(cc3C[C@H]3COC(=O)[C@@H]32)OCO4)cc(OC)c1OC` [DESOXYPODOPHYLLOTOXIN] showed an EC50 of 0.032 µg/mL (≈ 0.0803 µM).
In the case of `COc1ccc(-c2cc(=O)c3c(O)c(OC)c(OC)cc3o2)cc1OC`, the EC50 is reported as > 100 µg/mL.
`c1cc2c(cc1[C@H]1OC[C@H]3[C@@H]1CO[C@@H]3c1ccc3c(c1)OCO3)OCO2` [SESAMIN] was tested, and the EC50 was > 100 µg/mL.
`COc1ccc(-c2cc(=O)c3c(O)c(OC)c(OC)cc3o2)cc1O` [EUPATORIN] was tested, and the EC50 was > 50 µg/mL.
